Reference: US20250230193A1, “CYCLIC COMPOUND HAVING SELECTIVE KRAS INHIBITORY EFFECT ON HRAS AND NRAS” (CHUGAI SEIYAKU KABUSHIKI KAISHA, priority 2022, published 2025)
*1 amine or outer side, *2 acyl side, *3 side chain or, on linkers, in order; H or OH if unused. Where a SMILES comes first, the peptide text is derived from it. Bridges are numbered along the chain shown (N, C = ends). [ ]: non-standard residue; d: D form. The star is where a group is joined. hPhe(3-Cl-4-CF3) = N[C@@H](CCc1ccc(C(F)(F)F)c(Cl)c1)C(=O)O; X47 = O=C([C@H](Cc1ccc(C(F)(F)F)cc1)N(CCCF)[*:1])[*:2]; X20 = CCCN([C@@H](CC1CCC(F)(F)CC1)C(=O)[*:2])[*:1]; NMeGly(cPent) = CN[C@H](C(=O)O)C1CCCC1; NMeD = CN[C@@H](CC(=O)O)C(=O)O; NMeL = CN[C@@H](CC(C)C)C(=O)O; Morpholide = C1CN(*)CCO1; NMeA = CN[C@@H](C)C(=O)O; Ac5c = NC1(C(=O)O)CCCC1; Aze = O=C(O)[C@@H]1CCN1; Sar = CNCC(=O)O

How the values were obtained:
[1] = target: GDP-bound HRAS wild-type protein (Homo sapiens, UniProt P01112); assay: Binding to HRAS by surface plasmon resonance (SPR), Single Cycle Kinetics; details: KD ratio HRAS/KRAS, SPR
Sequence of GDP-bound HRAS wild-type protein (P01112 whole entry): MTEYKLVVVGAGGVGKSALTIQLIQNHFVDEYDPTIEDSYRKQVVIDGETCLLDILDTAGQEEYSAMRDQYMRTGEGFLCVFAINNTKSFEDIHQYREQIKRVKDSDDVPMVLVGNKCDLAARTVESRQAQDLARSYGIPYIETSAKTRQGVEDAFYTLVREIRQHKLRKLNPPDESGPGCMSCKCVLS

[2] = target: GDP-bound NRAS wild-type protein (Homo sapiens, UniProt P01111); assay: Binding to NRAS by surface plasmon resonance (SPR), Single Cycle Kinetics; details: KD ratio NRAS/KRAS, SPR
Sequence of GDP-bound NRAS wild-type protein (P01111 whole entry): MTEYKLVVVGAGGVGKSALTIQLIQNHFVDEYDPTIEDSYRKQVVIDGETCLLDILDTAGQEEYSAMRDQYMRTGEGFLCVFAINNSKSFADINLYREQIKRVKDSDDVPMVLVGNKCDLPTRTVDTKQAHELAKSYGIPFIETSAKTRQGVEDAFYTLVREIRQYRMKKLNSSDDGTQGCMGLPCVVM

SMILES: CC[C@H](C)[C@@H]1NC(=O)[C@H](CC(C)C)N(C)C(=O)C[C@@H](C(=O)N2CCOCC2)N(C)C(=O)[C@H](C2CCCC2)N(C)C(=O)C2(CCCC2)NC(=O)[C@@H]2CCCN2C(=O)[C@H](CCc2ccc(C(F)(F)F)c(Cl)c2)NC(=O)CN(C)C(=O)[C@H](Cc2ccc(C(F)(F)F)cc2)N(CCCF)C(=O)[C@@H]2CCN2C(=O)[C@H](C)N(C)C1=O [PP0525] ([NMeL]I[NMeA][Aze][X47][Sar][hPhe(3-Cl-4-CF3)]P[Ac5c][NMeGly(cPent)][NMeD]-Morpholide; lactam N-11)
- HRAS/KRAS (ratio of KD value with respect to GDP-bound HRAS wild-type protein to KD value with respect to KRAS) [1]: B (a compound having 3 or more and less than 10 is denoted as B)
- NRAS/KRAS (ratio of KD value with respect to GDP-bound NRAS wild-type protein to KD value with respect to KRAS) [2]: C (A compound having a KD ratio of 0.1 or more and less than 3 is denoted as C)

SMILES: CCCN1C(=O)CN(C)C(=O)CN(C)C(=O)[C@H]([C@@H](C)CC)NC(=O)[C@H](CC(C)C)N(C)C(=O)C[C@@H](C(=O)N2CCOCC2)N(C)C(=O)[C@H](C2CCCC2)N(C)C(=O)C2(CCCC2)NC(=O)[C@@H]2CCCN2C(=O)[C@H](CCc2ccc(C(F)(F)F)c(Cl)c2)NC(=O)CN(C)C(=O)[C@@H]1CC1CCC(F)(F)CC1 [PP0526] ([NMeL]I[Sar][Sar][X20][Sar][hPhe(3-Cl-4-CF3)]P[Ac5c][NMeGly(cPent)][NMeD]-Morpholide; lactam N-11)
- HRAS/KRAS (ratio of KD value with respect to GDP-bound HRAS wild-type protein to KD value with respect to KRAS) [1]: C (A compound having a KD ratio of 0.1 or more and less than 3 is denoted as C)
- NRAS/KRAS (ratio of KD value with respect to GDP-bound NRAS wild-type protein to KD value with respect to KRAS) [2]: B (a compound having 3 or more and less than 10 is denoted as B)

SMILES: CCCN1C(=O)[C@@H]2CCN2C(=O)[C@H](C)N(C)C(=O)[C@H]([C@@H](C)CC)NC(=O)[C@H](CC(C)C)N(C)C(=O)C[C@@H](C(=O)N2CCOCC2)N(C)C(=O)[C@H](C2CCCC2)N(C)C(=O)C2(CCCC2)NC(=O)[C@@H]2CCCN2C(=O)[C@H](CCc2ccc(C(F)(F)F)c(Cl)c2)NC(=O)CN(C)C(=O)[C@@H]1CC1CCC(F)(F)CC1 [PP0527] ([NMeL]I[NMeA][Aze][X20][Sar][hPhe(3-Cl-4-CF3)]P[Ac5c][NMeGly(cPent)][NMeD]-Morpholide; lactam N-11)
- HRAS/KRAS (ratio of KD value with respect to GDP-bound HRAS wild-type protein to KD value with respect to KRAS) [1]: C (A compound having a KD ratio of 0.1 or more and less than 3 is denoted as C)
- NRAS/KRAS (ratio of KD value with respect to GDP-bound NRAS wild-type protein to KD value with respect to KRAS) [2]: C (A compound having a KD ratio of 0.1 or more and less than 3 is denoted as C)

SMILES: CC[C@H](C)[C@@H]1NC(=O)[C@H](CC(C)C)N(C)C(=O)C[C@@H](C(=O)N2CCOCC2)N(C)C(=O)[C@H](C2CCCC2)N(C)C(=O)C2(CCCC2)NC(=O)[C@@H]2CCCN2C(=O)[C@H](CCc2ccc(C(F)(F)F)c(Cl)c2)NC(=O)CN(C)C(=O)[C@H](Cc2ccccc2)N2CC=CC[C@@H](C2=O)N(C)C(=O)CN(C)C1=O [PP0528]
- HRAS/KRAS (ratio of KD value with respect to GDP-bound HRAS wild-type protein to KD value with respect to KRAS) [1]: C (A compound having a KD ratio of 0.1 or more and less than 3 is denoted as C)
- NRAS/KRAS (ratio of KD value with respect to GDP-bound NRAS wild-type protein to KD value with respect to KRAS) [2]: C (A compound having a KD ratio of 0.1 or more and less than 3 is denoted as C)

SMILES: CC[C@H](C)[C@@H]1NC(=O)[C@H](CC(C)C)N(C)C(=O)C[C@@H](C(=O)N2CCOCC2)N(C)C(=O)[C@H](C2CCCC2)N(C)C(=O)C2(CCCC2)NC(=O)[C@@H]2CCCN2C(=O)[C@H](CCc2ccc(C(F)(F)F)c(Cl)c2)NC(=O)CN(C)C(=O)[C@H](Cc2ccccc2)N2CCCC[C@@H](C2=O)N(C)C(=O)CN(C)C1=O [PP0529]
- HRAS/KRAS (ratio of KD value with respect to GDP-bound HRAS wild-type protein to KD value with respect to KRAS) [1]: B (a compound having 3 or more and less than 10 is denoted as B)
- NRAS/KRAS (ratio of KD value with respect to GDP-bound NRAS wild-type protein to KD value with respect to KRAS) [2]: C (A compound having a KD ratio of 0.1 or more and less than 3 is denoted as C)
